How the values were obtained:
[1] = tested on: greenhouse red spider mite (Tetranychus urticae); assay: Tetranychus test, OP resistant (TETRUR spray treatment); format: in vivo; settings: after 6 days
Protocol: Solvents: 78.0 parts by weight of acetone • • 1.5 parts by weight of dimethyl formamide Emulsifier: 0.5 part by weight of alkylaryl polyglycol ether To produce a suitable preparation of active compound, 1 part by weight of active compound is mixed with the stated amounts of solvent and emulsifier, and the concentrate is diluted with emulsifier-containing water to the desired concentration. Discs of bean leaves (Phaseolus vulgaris) which are infested by all stages of the greenhouse red spider mite (Tetranychus urticae) are sprayed with an active compound preparation of the desired concentration. After 6 days, the activity in % is determined. 100% means that all spider mites have been killed; 0% means that none of the spider mites has been killed. The test was carried out and evaluated as described in Example B.7.

[2] = tested on: caterpillars of the army worm (Spodoptera frugiperda); assay: Spodoptera frugiperda test (SPODFR spray treatment); format: in vivo; settings: after 7 days
Protocol: Solvents: 78.0 parts by weight of acetone • • 1.5 parts by weight of dimethyl formamide Emulsifier: 0.5 part by weight of alkylaryl polyglycol ether To produce a suitable preparation of active compound, 1 part by weight of active compound is mixed with the stated amounts of solvent and emulsifier, and the concentrate is diluted with emulsifier-containing water to the desired concentration. Discs of maize leaves (Zea mays) are sprayed with an active compound preparation of the desired concentration and, after drying, populated with caterpillars of the army worm (Spodoptera frugiperda). After 7 days, the activity in % is determined. 100% means that all caterpillars have been killed; 0% means that none of the caterpillars have been killed. The test was carried out and evaluated as described in Example B.5.

[3] = logP by HPLC on reversed-phase columns (C 18), EU Guideline 79/831 Annex V.A8; format: physicochemical; settings: ** LC-MS in the neutral range, pH 7.8, 0.001 molar aqueous ammonium bicarbonate and acetonitrile
[4] = tested on: larvae of the mustard beetle (Phaedon cochleariae); assay: Phaedon test (PHAECO spray treatment); format: in vivo; settings: after 7 days
Protocol: Solvents: 78.0 parts by weight of acetone • • 1.5 parts by weight of dimethyl formamide Emulsifier: 0.5 part by weight of alkylaryl polyglycol ether To produce a suitable preparation of active compound, 1 part by weight of active compound is mixed with the stated amounts of solvent and emulsifier, and the concentrate is diluted with emulsifier-containing water to the desired concentration. Discs of Chinese cabbage leaves (Brassica pekinensis) are sprayed with an active compound preparation of the desired concentration and, after drying, populated with larvae of the mustard beetle (Phaedon cochleariae). After 7 days, the activity in % is determined. 100% means that all beetle larvae have been killed; 0% means that none of the beetle larvae have been killed. The test was carried out and evaluated as described in Example B.4.

Lucilia cuprina larvae = assay: Lucilia cuprina test (LUCICU); format: in vivo; settings: 100 ppm, treated horse meat, after 2 days
Protocol: Solvent: Dimethyl Sulphoxide To produce a suitable preparation of active compound, 10 mg of active compound are mixed with 0.5 ml of dimethyl sulphoxide, and the concentrate is diluted with water to the desired concentration. Containers containing horse meat treated with the active compound preparation of the desired concentration are populated with Lucilia cuprina larvae. After 2 days, the kill in % is determined. 100% means that all larvae have been killed; 0% means that none of the larvae have been killed.

Boophilus microplus = Boophilus microplus test (BOOPMI injection); format: in vivo; settings: 20 μg/animal, injected into the abdomen, after 7 days
Protocol: Solvent: Dimethyl Sulphoxide To produce a suitable preparation of active compound, 10 mg of active compound are mixed with 0.5 ml of solvent, and the concentrate is diluted with water to the desired concentration. The active compound solution is injected into the abdomen (Boophilus microplus) and the animals are transferred into dishes and stored in a climatized room. The activity is monitored for deposition of fertile eggs. After 7 days, the activity in % is determined. 100% means that none of the ticks has laid fertile eggs.

adult Musca domestica = assay: Musca domestica test (MUSCDO); format: in vivo; settings: treated sponge
Protocol: Solvent: Dimethyl sulphoxide To prepare a suitable preparation of active compound, 10 mg of active component are mixed with 0.5 ml of dimethyl sulphoxide, and the concentrate is diluted with water to the desired concentration. Vessels containing a sponge which had been treated with the active compound preparation of the desired concentration are populated with adult Musca domestica. After the desired period of time, the kill in % is determined. 100% means that all flies have been killed; 0% means that none of the flies have been killed.

Ctenocephalides felis = Ctenocephalides felis oral (CTECFE); format: in vivo; settings: 100 ppm in citrated cattle blood, after 2 days
Protocol: Solvent: 1 part by weight of dimethyl sulphoxide To produce a suitable preparation of active compound, 10 mg of active compound are mixed with 0.5 ml of dimethyl sulphoxide. One part of the concentrate is diluted with citrated cattle blood, and the desired concentration is prepared. 20 unfed adult fleas (Ctenocephalides felis) are placed into a chamber whose top and bottom ends are closed with gauze. A metal cylinder whose bottom end is closed with parafilm is placed onto the chamber. The cylinder contains the blood/active compound preparation, which can be taken up by the fleas through the parafilm membrane. After 2 days, the kill in % is determined. 100% means that all fleas have been killed; 0% means that none of the fleas have been killed.

[5] = tested on: Boophilus microplus strain Parkhurst (SP-resistant); assay: Boophilus microplus test (DIP); format: in vivo; settings: 100 ppm
Protocol: Test animals: adult fed females of the Boophilus microplus strain Parkhurst (SP-resistant)
Solvent: Dimethyl sulphoxide
10 mg of active compound are dissolved in 0.5 ml of dimethyl sulphoxide. To produce a suitable formulation, the active compound solution is diluted with water to the particular desired concentration. This active compound preparation is pipetted into tubes. 8-10 ticks are transferred into a further tube provided with holes. The tube is dipped into the active compound preparation, with all ticks being wetted completely. After the liquid has run off, the ticks are transferred to filter discs in plastic dishes and kept in a climatized room. After the desired period of time, the activity is checked for deposition of fertile eggs. Eggs whose fertility is not visible from the outside are kept in glass tubes in a climatized cupboard under the larvae have hatched. An activity of 100% means that no tick has laid fertile eggs.

Row | SMILES | activity (spider mites killed) ([1]; 20 g/ha) | activity (caterpillars killed) ([2]; 20 g/ha) [%] | activity (spider mites killed) ([1]; 100 g/ha) | logP [3] | activity (beetle larvae killed) ([4]; 100 g/ha) | activity (caterpillars killed) ([2]; 100 g/ha) | kill (Lucilia cuprina larvae) [%] | activity (no deposition of fertile eggs) (Boophilus microplus) [%] | kill (adult Musca domestica; 20 ppm) [%] | kill (Ctenocephalides felis) [%] | kill (adult Musca domestica; 100 ppm) [%] | activity (no deposition of fertile eggs) [5] [%] | activity (beetle larvae killed) ([4]; 4 g/ha) [%]
1 | FC(F)(F)c1nn(-c2ncccn2)c(NCc2ccccc2)c1-c1cc(Cl)c2c(c1)OCO2 [compound (XXI), reference compound] | 0% | 0 | – | – | – | – | – | – | – | – | – | – | –
2 | CC(C)OC=Nc1c(-c2cc(Cl)cc(C(F)(F)F)c2)c(C(F)(F)C(F)(F)F)nn1-c1ncccn1 [Example 1-44] | – | – | 100% | 5.31** | 100% | 100% | – | – | – | – | – | – | –
3 | COc1ccc(C=Nc2c(-c3cc(Cl)cc(C(F)(F)F)c3)c(C(F)(F)F)nn2-c2ncccn2)cc1 [Example 1-17] | – | – | 100% | 4.98** | 100% | 100% | 100 | 100 | 100 | 100 | – | – | –
4 | COc1ccc(C=Nc2c(-c3cc(Cl)cc(C(F)(F)F)c3)c(C(F)(F)C(F)F)nn2-c2ncccn2)cc1 [Example 1-21] | – | – | 90% | 3.69** | 100% | 100% | 100 | 100 | – | 100 | 100 | – | –
5 | COc1nccnc1-n1nc(C(F)(F)C(F)F)c(-c2cc(Cl)cc(C(F)(F)F)c2)c1N=COC(C)C [Example 2-20] | – | – | 100% | 5.1** | – | – | 100 | 100 | – | – | 80 | – | –
6 | COc1ccc(C=Nc2c(-c3cc(Cl)cc(C(F)(F)F)c3)c(C(F)(F)C(F)(F)F)nn2-c2ncccn2)cc1 [Example 1-41] | – | – | 100% | 5.4** | 100% | 100% | 100 | 100 | – | 100 | 100 | – | –
7 | FC(F)(F)c1nn(-c2ncccn2)c(N=Cc2ccccc2)c1-c1cc(Cl)c2c(c1)OCO2 [Example 1-18] | at least 90% | 67 | 90% | 3.97** | 100% | 100% | 100 | 100 | 80 | 100 | – | 100 | –
8 | CCOC=Nc1c(-c2cc(Cl)c3c(c2)OCO3)c(C(F)(F)C(F)F)nn1-c1ncccn1 [Example 1-35] | – | – | 90% | 3.42** | 100% | 100% | 100 | 100 | 100 | 100 | – | 100 | –
9 | COc1cc(C=Nc2c(-c3cc(Cl)cc(C(F)(F)F)c3)c(C(F)(F)F)nn2-c2ncccn2)ccc1O [Example 1-10] | – | – | 100% | 4.05** | 100% | 100% | – | – | – | – | – | – | –
10 | COc1ccc(CNc2c(-c3cc(Cl)cc(C(F)(F)F)c3)c(C(F)(F)F)nn2-c2ncccn2)cc1 [compound (XXII), reference compound] | – | – | no activity | – | no activity | no activity | – | – | – | – | – | – | –
11 | FC(F)(F)c1cc(Cl)cc(-c2c(C(F)(F)C(F)(F)F)nn(-c3ncccn3)c2N=Cc2ccc(Cl)cc2)c1 [Example 1-40] | – | – | 100% | 5.93** | 100% | 100% | 100 | 100 | – | 100 | 100 | – | –
12 | CC(C)OC=Nc1c(-c2cc(Cl)c3c(c2)OCO3)c(C(F)(F)C(F)F)nn1-c1ncccn1 [Example 1-38] | – | – | 100% | 3.66** | 100% | 100% | 100 | 100 | 100 | 100 | – | 100 | –
13 | FC(F)(F)c1cc(Cl)cc(-c2c(C(F)(F)F)nn(-c3ncccn3)c2N=Cc2ccccc2)c1 [Example 1-12] | – | 100 | 100% | 4.92** | 100% | 100% | 100 | 100 | 100 | 100 | – | – | 100
14 | FC(F)C(F)(F)c1nn(-c2ncccn2)c(N=Cc2ccc(Cl)cc2)c1-c1cc(Cl)c2c(c1)OCO2 [Example 1-22] | – | – | 90% | 4.34** | 100% | 100% | 100 | 100 | – | 100 | – | 100 | –
15 | COc1nccnc1-n1nc(C(F)(F)F)c(-c2cc(Cl)c3c(c2)OCO3)c1N=COC(C)C [Example 2-19] | – | – | 100% | 4.26** | 100% | 100% | 100 | 100 | 100 | 90 | – | 80 | –

From US8629273B2, “Diazinylpyrazolyl compounds” (Bayer Intellectual Property GmbH, priority 2009, dated 2014)
